According to patent US20030224978A1, “Compounds and methods for modulating apoptosis” (McGill University, priority 1996, published 2003):
“Also recorded” adds a separate entry of the source. Positions of bridges follow the written chain, without caps; N, C: chain ends. Residues, ends and D or L forms follow the SMILES beside them.

Columns and labels:
chick N-cadherin = biological target: T1, chick N-cadherin (Gallus gallus, UniProt P10288); test: N-cadherin dependent neurite outgrowth of rat cerebellar neurons on N-cadherin expressing 3T3 cells (Example 14); type: cell-based; details: for inhibition at 250 µg/mL: NIH3T3, 250 μg/mL, 16-18 hours; for inhibitory activity on N-cadherin dependent neurite outgrowth, in words: Tables 8 and 9, 250 or 125 μg/mL; for activity on N-cadherin dependent neurite outgrowth at lower concentration, in words: concentrations of 125 µg/mL or below; for reduction in inhibitory activity on flanking HAV with E-cadherin amino acids: Table 8, 250 μg/mL
T1 construct: expressed in transfected cells; host or cells: 3T3 fibroblasts
T1 sequence (P10288 165-912): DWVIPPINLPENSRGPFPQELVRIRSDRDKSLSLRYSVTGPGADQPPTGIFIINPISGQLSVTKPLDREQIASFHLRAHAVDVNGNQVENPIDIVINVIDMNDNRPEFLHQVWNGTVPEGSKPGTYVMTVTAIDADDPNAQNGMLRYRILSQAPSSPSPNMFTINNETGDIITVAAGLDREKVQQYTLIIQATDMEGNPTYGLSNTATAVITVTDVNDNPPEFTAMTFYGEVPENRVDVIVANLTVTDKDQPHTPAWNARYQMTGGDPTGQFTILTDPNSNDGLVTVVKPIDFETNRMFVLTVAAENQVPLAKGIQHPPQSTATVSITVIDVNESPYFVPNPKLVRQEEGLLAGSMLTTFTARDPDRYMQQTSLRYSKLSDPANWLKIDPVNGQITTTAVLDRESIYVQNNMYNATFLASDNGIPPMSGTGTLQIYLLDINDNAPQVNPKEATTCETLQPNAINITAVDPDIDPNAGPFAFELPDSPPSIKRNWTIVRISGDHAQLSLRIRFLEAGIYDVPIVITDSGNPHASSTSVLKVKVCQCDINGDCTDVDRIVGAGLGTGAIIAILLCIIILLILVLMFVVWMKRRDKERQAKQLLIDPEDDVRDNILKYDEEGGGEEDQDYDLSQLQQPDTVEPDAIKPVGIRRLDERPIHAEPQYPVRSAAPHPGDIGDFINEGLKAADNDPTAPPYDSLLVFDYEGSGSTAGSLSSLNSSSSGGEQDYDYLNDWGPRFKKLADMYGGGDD
Description: Cell culture and neurite outgrowth assays. Co-cultures of cerebellar neurons on monolayers of control 3T3 cells and monolayers of transfected 3T3 cells that express physiological levels of chick N-cadherin or human L1 were established as previously described (Williams et al., Neuron 13:583-594, 1994). In brief, 80,000 3T3 cells (control and transfected) were plated into individual chambers of an eight-chamber tissue culture slide coated with polylysine and fibronectin and cultured in DMEM/10% FCS. After 24 hours, when confluent monolayers had formed, the medium was removed and 3000 cerebellar neurons isolated from post-natal day 2-3 rats were plated into each well in SATO media (Doherty et al., Nature 343:464-466, 1990) supplemented with 2% FCS. All of the test peptides were added immediately before the neurons as a 2×stock prepared in SATO/2% FCS. The co-cultures were maintained for 16-18 hours, at which time they were fixed and immunostained for GAP-43 which is present only in the neurons and delineates the neuritic processes. The mean length of the longest neurite per cell was measured for 150-200 neurons sampled in replicate cultures as previously described (Williams et al., Neuron 13:583-594, 1994). […] Dose-response curves were evaluated and the EC50 values determined.
Effects of cyclic HAV peptides on N-cadherin function. The ability of N-Ac-CHAVC-NH2 (SEQ ID NO:10; compound 1) to inhibit neurite outgrowth was initially tested. This cyclic peptide has the cadherin CAR sequence (HAV) and no flanking amino acid residues. Neurons were cultured on confluent monolayers of control (untransfected) and N-cadherin expressing 3T3 cells for 16-18 hours. The cells were then fixed and the length of the longest neurite on 150-200 neurons was determined by standard assay, as described above. FIG. 24 gives the mean neurite length in a representative experiment where cerebellar neurons have been cultured over control and N-cadherin expressing cells. In the absence of peptide, the mean length of the longest neurite per cell was approximately double on the N-cadherin expressing cells, as compared to 3T3 cells. This response requires N-cadherin function in both the neuron and transfected fibroblast.

in vitro [1] = type: cell-based; details: human
Description: (§1) N-Ac-CHAVC-NH2 (SEQ ID NO:10) and the control peptide N-Ac-CHGVC-NH2 (SEQ ID NO:20) were evaluated for possible cytotoxic effects on human microvascular endothelial (HMVEC; Clonetics), human umbilical vein endothelial (HUVEC; ATCC #CRL-1730), IAFp2 (human fibroblast cell line; Institute Armand-Frapier, Montreal, Quebec), WI-38 (human fibroblast cell line; ATCC #CCL-75), MDA-MB231 (human breast cancer cell line; ATCC #HTB-26), and PC-3 (human prostate cancer cell line; ATCC #CRL-1435) cells utilizing the MTT assay (Plumb et al., Cancer Res. 49:4435-4440, 1989). Neither of the peptides was cytotoxic at concentrations up to and including 100 μM. Similarly, neither of the peptides was capable of inhibiting the proliferation of the above cell lines at concentrations up to 100 μM, as judged by ^3H-thymidine incorporation assays.

in vitro [2] = type: cell-based; details: human; remark: listed apart in the source
Description: as §1

in vitro [3] = type: cell-based; details: human; remark: listed apart in the source
Description: as §1

in vitro [4] = type: cell-based; details: human; remark: listed apart in the source
Description: as §1

[5] = tested on: angiogenesis in chick embryonic chorioallantoic membranes; test: Chick chorioallantoic membrane angiogenesis assay; type: in vivo; details: 3, 17, and 33 μg/mesh
Description: The chick chorioallantoic membrane assay was used to assess the effects of cyclic peptides on angiogenesis (Iruela-Arispe et al., Molecular Biology of the Cell 6:327-343, 1995). Cyclic peptides were embedded in a mesh composed of vitrogen at concentrations of 3, 17, and 33 μg/mesh. The meshes were then applied to 12-day-old chick embryonic chorioallantoic membranes. After 24 hours, the effects of the peptides on angiogenesis were assessed by computer assisted morphometric analysis.
For each concentration of cyclic peptide, the percent inhibition of angiogenesis (relative to the level of angiogenesis in the absence of cyclic peptide) is provided. Assays were performed in the presence (+) or absence (−) of […] VEGF. For example, the cyclic peptide N-Ac-CHAVC-NH2 (SEQ ID NO:10) inhibited angiogenesis by 46%, 51%, and 51% at concentrations of 3, 17, and 33 μg/mesh, respectively.

Compound	inhibition at 250 µg/mL (chick N-cadherin) [%]	IC50 (in vitro [1]) [µM]	IC50 (in vitro [2]) [µM]	IC50 (in vitro [3]) [µM]	IC50 (in vitro [4]) [µM]	other results
CC(C)[C@@H]1NC(=O)CNC(=O)[C@H](Cc2c[nH]cn2)NC(=O)[C@H](C)NC(=O)[C@@H](N)CSSC[C@@H](C(N)=O)NC(=O)[C@H](CC(=O)O)NC1=O [H-CAHGVDC-NH2, reference compound] (H-CAHGVDC-NH2; disulfide 1-7)	5.7 ± 7.8	> 100	> 100	> 100	> 100	–
N-Ac-CLRAHAVDC-NH2 (disulfide 1-9 (inferred))	–	–	–	–	–	inhibitory activity on N-cadherin dependent neurite outgrowth, in words (chick N-cadherin): potent inhibitors of neurite outgrowth; also recorded: partial recovery of activity; activity on N-cadherin dependent neurite outgrowth at lower concentration, in words (chick N-cadherin): lost activity
N-Ac-CRAHAVDC-NH2 (disulfide 1-8 (inferred))	–	–	–	–	–	inhibitory activity on N-cadherin dependent neurite outgrowth, in words (chick N-cadherin): completely eliminated inhibitory activity
N-Ac-CHAVDINGC-NH2 (disulfide 1-9 (inferred))	–	–	–	–	–	inhibitory activity on N-cadherin dependent neurite outgrowth, in words (chick N-cadherin): completely abrogates activity
N-Ac-CAHAVC-NH2 (disulfide 1-6 (inferred))	–	–	–	–	–	activity on N-cadherin dependent neurite outgrowth at lower concentration, in words (chick N-cadherin): lost activity
CC[C@H](C)[C@@H]1NC(=O)[C@H](CC(=O)O)NC(=O)[C@H](C(C)C)NC(=O)[C@H](C)NC(=O)[C@H](Cc2c[nH]cn2)NC(=O)[C@H](C)NC(=O)[C@@H](N)CSSC[C@@H](C(N)=O)NC1=O (H-CAHAVDIC-NH2; disulfide 1-8)	-3.7 ± 2.9	> 100	> 100	> 100	> 100	inhibitory activity on N-cadherin dependent neurite outgrowth, in words (chick N-cadherin): total loss of activity; inhibitory activity on N-cadherin dependent neurite outgrowth, in words (chick N-cadherin; listed as compound 15): lost activity
N-Ac-CSHAVSC-NH2 (disulfide 1-7 (inferred))	–	–	–	–	–	reduction in inhibitory activity on flanking HAV with E-cadherin amino acids (chick N-cadherin): complete
CC(C)[C@@H]1NC(=O)[C@H](C)NC(=O)[C@H](Cc2c[nH]cn2)NC(=O)[C@H](C)NC(=O)[C@@H](N)CSSC[C@@H](C(N)=O)NC(=O)[C@H](CC(=O)O)NC1=O [H-CAHAVDC-NH2, H-Cys-Ala-His-Ala-Val-Asp-Cys-NH2] (H-CAHAVDC-NH2; disulfide 1-7)	1.3 ± 13	> 100	> 100	> 100	> 100	–
CC[C@H](C)[C@@H]1NC(=O)[C@H](CC(=O)O)NC(=O)[C@H](C(C)C)NC(=O)CNC(=O)[C@H](Cc2c[nH]cn2)NC(=O)[C@H](C)NC(=O)[C@@H](N)CSSC[C@@H](C(N)=O)NC1=O [reference compound] (H-CAHGVDIC-NH2; disulfide 1-8)	7.2 ± 8.1	> 100	> 100	> 100	> 100	–
CC(=O)N[C@H]1CSSC[C@@H](C(N)=O)NC(=O)[C@H](CC(=O)O)NC(=O)[C@H](C(C)C)NC(=O)[C@H](C)NC(=O)[C@H](Cc2cnc[nH]2)NC1=O [N-Ac-CHAVDC-NH2] (Ac-CHAVDC-NH2; disulfide 1-6)	–	–	–	–	–	EC50 (chick N-cadherin; from dose-response curve): 93 µM
N-Ac-CHAVSSC-NH2 (disulfide 1-7 (inferred))	–	–	–	–	–	reduction in inhibitory activity on flanking HAV with E-cadherin amino acids (chick N-cadherin): substantial
N-Ac-CLRAHAVC-NH2 (disulfide 1-8 (inferred))	–	–	–	–	–	inhibitory activity on N-cadherin dependent neurite outgrowth, in words (chick N-cadherin): detrimental affect
CC(=O)N[C@H]1CSSC[C@@H](C(N)=O)NC(=O)[C@H](Cc2c[nH]cn2)NC(=O)CNC(=O)[C@H](C(C)C)NC1=O [N-Ac-CVGHC-NH2, reference compound] (Ac-CVGHC-NH2; disulfide 1-5 (inferred))	–	> 100	> 100	> 100	> 100	–

Further lines, with some results ahead:

inhibition at 250 µg/mL (chick N-cadherin) [%]	IC50 (in vitro [1]) [µM]	IC50 (in vitro [2]) [µM]	IC50 (in vitro [3]) [µM]	IC50 (in vitro [4]) [µM]	Compound	other results
4.8 ± 6.5	> 100	> 100	> 100	> 100	CC[C@H](C)[C@@H]1NC(=O)[C@H](CC(=O)O)NC(=O)[C@H](C(C)C)NC(=O)CNC(=O)[C@H](Cc2c[nH]cn2)NC(=O)[C@H](C)NC(=O)[C@@H](NC(C)=O)CSSC[C@@H](C(N)=O)NC1=O [reference compound] (Ac-CAHGVDIC-NH2; disulfide 1-8)	–
11 ± 8.6	> 100	> 100	> 100	> 100	CC(=O)N[C@H]1CSSC[C@@H](C(N)=O)NC(=O)[C@H](C(C)C)NC(=O)[C@H](C)NC(=O)[C@H](Cc2c[nH]cn2)NC(=O)[C@H](CO)NC1=O [N-Ac-CSHAVC-NH2, N-Ac-Cys-Ser-His-Ala-Val-Cys-NH2] (Ac-CSHAVC-NH2; disulfide 1-6)	reduction in inhibitory activity on flanking HAV with E-cadherin amino acids (chick N-cadherin): complete
–	> 100	> 100	> 100	> 100	CC(=O)N[C@H]1CSSC[C@@H](C(N)=O)NC(=O)[C@H](Cc2c[nH]cn2)NC(=O)[C@H](C)NC(=O)[C@H](C(C)C)NC1=O [N-Ac-CVAHC-NH2] (Ac-CVAHC-NH2; disulfide 1-5 (inferred))	inhibition of angiogenesis, in words [5]: relatively inactive
-6.7 ± 5.8	> 100	> 100	> 100	> 100	CC(=O)N[C@H]1CSSC[C@@H](C(N)=O)NC(=O)[C@H](CO)NC(=O)[C@H](C(C)C)NC(=O)CNC(=O)[C@H](Cc2c[nH]cn2)NC1=O [N-Ac-CHGVSC-NH2, reference compound] (Ac-CHGVSC-NH2; disulfide 1-6)	–
12.5 ± 7.5	> 100	> 100	> 100	> 100	CC(=O)N[C@H]1CSSC[C@@H](C(N)=O)NC(=O)[C@H](C(C)C)NC(=O)CNC(=O)[C@H](Cc2c[nH]cn2)NC(=O)[C@H](CO)NC1=O [N-Ac-CSHGVC-NH2, reference compound] (Ac-CSHGVC-NH2; disulfide 1-6)	–
